Experimental findings from ChEMBL document CHEMBL4346677, “Compounds based on 5-(perylen-3-ylethynyl)uracil scaffold: High activity against tick-borne encephalitis virus and non-specific activity against enterovirus A” (Eur J Med Chem, 2019) are described below.

The source made the active and inactive calls. No cut-off for these calls is given here.

One series deals with RD. Kind of series: Cytotoxicity against human RD cells assessed as formation of syncytium-like patterns of cells at 50 uM after 7 days by microscopic method. To be noted: 168 h. The class given is cell-based.
The test system of the next series is Echovirus. As to the kind of experiment: Antiviral activity against Echovirus 30 isolate 48461. In kind it is functional, organism-based.
Series [1] relates to Tick-borne encephalitis virus. Kind of series: Antiviral activity against TBEV Absettarov infected in PEK cells assessed as plaque reduction preincubated for 1 hr followed by overlaying with 1.26% methylcellulose and measured after 6 days by gentian violet staining-based assay. In kind it is functional, organism-based.
A short description of series [2]: Cytotoxicity against PEK cells assessed as reduction in cell viability after 7 days by microscopic method. The following applies: pig. The class given is cell-based, Sus scrofa.
For the next series, the system named is Enterovirus A71. Kind of series: Antiviral activity against Enterovirus A71 isolate 46973 infected in human RD cells assessed as reduction in virus induced cytopathic effect preincubated with viral suspension for 1 hr followed by cell addition measured after 5 to 7 days. In kind it is functional, organism-based. A general note: Damage to the host cells serves as the signal in cytopathic effect assays.

Series [3] in a line: Cytotoxicity against African green monkey Vero cells assessed as reduction in cell viability after 7 days by microscopic method. In kind it is cell-based. To be noted: chlorocebus sabaeus.
Another series deals with Vero. As to the kind of experiment: Cytotoxicity against African green monkey Vero cells assessed as formation of syncytium-like patterns of cells at 50 uM after 7 days by microscopic method. The class given is cell-based. The following applies: chlorocebus sabaeus, 168 h.
Series [4] can be described thus: Cytotoxicity against human RD cells assessed as reduction in cell viability after 7 days by microscopic method. The class given is cell-based.
Series [5] can be described thus: Cytotoxicity against human RD cells assessed as reduction in cell viability after 24 hrs by microscopic method. In kind it is cell-based.
Series [6] can be described thus: Cytotoxicity against PEK cells assessed as reduction in cell viability after 24 hrs by microscopic method. The class given is cell-based, Sus scrofa. To be noted: pig.
Series [7] in a line: Cytotoxicity against PEK cells assessed as formation of syncytium-like patterns of cells at 50 uM after 7 days by microscopic method. The class given is cell-based, Sus scrofa. The following applies: pig, 168 h.
A further series concerns Poliovirus 1. As to the kind of experiment: Antiviral activity against poliovirus type 1 sabin 1. The class given is functional, organism-based.
Series [8] can be described thus: Cytotoxicity against African green monkey Vero cells assessed as reduction in cell viability after 24 hrs by microscopic method. In kind it is cell-based. The following applies: chlorocebus sabaeus.
A further series deals with Human alphaherpesvirus 1. As to the kind of experiment: Antiviral activity against HSV-1 infected in African green monkey Vero cells preincubated with virus for 5 mins. The following applies: Human alphaherpesvirus 1, Vero. The class given is functional, organism-based.

Usually EC50 stands for the concentration that produces a half-maximal response. As a reminder, the CC50 is the concentration giving 50% cytotoxicity.

Turning to `O=C(Cn1cc(C#Cc2ccc3c4cccc5cccc(c6cccc2c63)c54)c(=O)[nH]c1=O)NCCCCCO`, the Activity entry (in the series with RD; in the series on Vero; in series [7]) was “Toxic” each time. Moreover, the result with Echovirus and in the series with Poliovirus 1 was inactive. Besides, the values for the EC50 (in series [1]; in the series with Enterovirus A71) were 77 nM and “Not Active”, respectively. In addition, the half-maximal cytotoxic concentration (CC50) at 168 h is greater than 50 µM in [2], greater than 50 µM in series [3] and greater than 104 µM in series [4]. Besides, the 50% cytotoxic concentration (CC50) at 24 h is greater than 104 µM in series [5], greater than 50 µM in series [6] and greater than 50 µM in series [8].
In the case of `O=C(O)Cn1cc(C#Cc2ccc3c4cccc5cccc(c6cccc2c63)c54)c(=O)[nH]c1=O`, the Activity entry (with RD; with Vero; in series [7]) was “Toxic” each time. Moreover, the result with Echovirus and with Poliovirus 1 was inactive. In addition, the EC50 in series [1] is 50 nM; in the series with Enterovirus A71 it was “Not Active”. In addition, the CC50 at 168 h was greater than 50 µM in [2], greater than 50 µM in series [3] and 65 µM in series [4]. Further, the results for the CC50 at 24 h in [5], in [6] and in [8] were 61 µM, greater than 50 µM and greater than 50 µM, respectively.
The compound `O=c1[nH]c(=O)n([C@H]2CC[C@@H](CO)O2)cc1C#Cc1ccc2c3cccc4cccc(c5cccc1c52)c43` returned an EC50 in the series on Human alphaherpesvirus 1 of 87 nM.
As for `CC(C)(C)C(=O)OCn1c(=O)c(C#Cc2ccc3c4cccc5cccc(c6cccc2c63)c54)cn(CC(=O)NCCCCCO)c1=O`, the Activity result (in the series with RD; with Vero; in series [7]) was “Toxic” throughout. Besides, the result with Echovirus and with Poliovirus 1 was inactive. For the same compound, the EC50 in series [1] was 1.6 nM; in the series on Enterovirus A71, “Not Active”. Also, the figures for the CC50 at 168 h in [2], in series [3] and in [4] were greater than 50 µM, greater than 50 µM and 10 µM, respectively. Further, the CC50 at 24 h in series [5] was 19 µM; in series [6] it was greater than 50 µM; in series [8], 32 µM.
Consider `CCCCNC(=O)Cn1cc(C#Cc2ccc3c4cccc5cccc(c6cccc2c63)c54)c(=O)n(COC(=O)C(C)(C)C)c1=O`, for which the Activity entry (with RD; in the series with Vero; in series [7]) was “Toxic” throughout. In addition, the outcome in the series with Echovirus and in the series on Poliovirus 1 was inactive. For the same compound, the EC50 in [1] was 54 nM; in the series on Enterovirus A71 it was “Not Active”. In addition, the cytotoxic concentration (CC50) at 168 h in series [2] was greater than 50 µM; in series [3], greater than 50 µM; in series [4], 10 µM. The cytotoxic concentration (CC50) at 24 h is 38 µM in series [5], greater than 50 µM in series [6] and greater than 50 µM in series [8].
For the compound `CC(C)(C)C(=O)OCn1c(=O)c(C#Cc2ccc3c4cccc5cccc(c6cccc2c63)c54)cn(CC(=O)NCCCCCCO)c1=O`, the Activity result (in the series on RD; in the series with Vero; in series [7]) was “Toxic” in each case. Further, the result in the series on Echovirus and with Poliovirus 1 was inactive. Also, the figures for the EC50 (in series [1]; in the series on Enterovirus A71) were 24 nM and “Not Active”, respectively. Also, the 50% cytotoxic concentration (CC50) at 168 h in series [2] is greater than 50 µM; in series [3], greater than 50 µM; in [4], 38 µM. Besides, the 50% cytotoxic concentration (CC50) at 24 h in series [5] is 19 µM; in series [6] it was greater than 50 µM; in [8] it was 38 µM.
For `CC(C)(C)C(=O)OCn1c(=O)c(C#Cc2ccc3c4cccc5cccc(c6cccc2c63)c54)cn(CC(=O)NCCO)c1=O`, the Activity result (in the series on RD; in the series on Vero; in series [7]) was “Toxic” throughout. Also, the outcome with Echovirus and in the series with Poliovirus 1 was inactive. Moreover, the half-maximal effective concentration (EC50) in series [1] is 2.1 nM; in the series on Enterovirus A71, “Not Active”. The results for the CC50 at 168 h in series [2], in [3] and in [4] were greater than 50 µM, 38 µM and 38 µM, respectively. The CC50 at 24 h is 19 µM in series [5], greater than 50 µM in series [6] and 32 µM in series [8].
For `O=C(Cn1cc(C#Cc2ccc3c4cccc5cccc(c6cccc2c63)c54)c(=O)[nH]c1=O)NCCCO`, the Activity entry (in the series with RD; with Vero; in series [7]) was “Toxic” each time. The result in the series with Echovirus and in the series on Poliovirus 1 was inactive. Further, the EC50 in [1] is 6 nM; with Enterovirus A71 it was “Not Active”. Moreover, the half-maximal cytotoxic concentration (CC50) at 168 h in series [2] is greater than 50 µM; in series [3], greater than 50 µM; in [4] it was greater than 104 µM. In addition, the CC50 at 24 h in series [5] is greater than 104 µM; in series [6] it was greater than 50 µM; in [8] it was greater than 50 µM.
In the case of `O=C(Cn1cc(C#Cc2ccc3c4cccc5cccc(c6cccc2c63)c54)c(=O)[nH]c1=O)N(CCO)CCO`, the Activity entry (in the series on RD; in the series with Vero; in series [7]) was “Toxic” throughout. Besides, the result in the series on Echovirus and in the series with Poliovirus 1 was inactive. Besides, the EC50 in [1] is 7 nM; with Enterovirus A71, “Not Active”. Also, the CC50 at 168 h in [2] is greater than 50 µM; in series [3], greater than 50 µM; in [4] it was greater than 104 µM. For the same compound, the figures for the CC50 at 24 h in [5], in series [6] and in [8] were greater than 104 µM, greater than 50 µM and greater than 50 µM, respectively.
Take `CCCCNC(=O)Cn1cc(C#Cc2ccc3c4cccc5cccc(c6cccc2c63)c54)c(=O)[nH]c1=O`: the Activity entry (with RD; with Vero; in [7]) was “Toxic” throughout. In addition, the outcome in the series on Echovirus and in the series on Poliovirus 1 was inactive. For the same compound, the EC50 in series [1] is 14 nM; in the series with Enterovirus A71, “Not Active”. The cytotoxic concentration (CC50) at 168 h was greater than 50 µM in [2] and 76 µM in series [4]. Further, the results for the half-maximal cytotoxic concentration (CC50) at 24 h in series [5] and in series [6] were 76 µM and greater than 50 µM, respectively.
Consider `O=C(Cn1cc(C#Cc2ccc3c4cccc5cccc(c6cccc2c63)c54)c(=O)[nH]c1=O)NCCCCCCO`, for which the Activity result (in the series on RD; in the series on Vero; in series [7]) was “Toxic” in each case. Besides, the outcome in the series with Echovirus and with Poliovirus 1 was inactive. Besides, the figures for the EC50 (in [1]; in the series on Enterovirus A71) were 6.1 nM and “Not Active”, respectively. Moreover, the CC50 at 168 h in series [2] was greater than 50 µM; in series [3], greater than 50 µM; in series [4] it was 38 µM. Further, the cytotoxic concentration (CC50) at 24 h in [5] was 19 µM; in [6], greater than 50 µM; in series [8], 38 µM.
Regarding `CC(C)(C)C(=O)OCn1c(=O)c(C#Cc2ccc3c4cccc5cccc(c6cccc2c63)c54)cn(CC(=O)NC[C@H](O)C(C)(C)CO)c1=O`, the Activity result (in the series with RD; in the series with Vero; in series [7]) was “Toxic” each time. The outcome with Echovirus and in the series with Poliovirus 1 was inactive. The results for the concentration giving a half-maximal response (EC50) (in [1]; with Enterovirus A71) were 0.79 nM and “Not Active”, respectively. Also, the CC50 at 168 h was greater than 50 µM in series [2], greater than 50 µM in [3] and 19 µM in series [4]. Besides, the values for the CC50 at 24 h in series [5], in series [6] and in series [8] were 19 µM, greater than 50 µM and greater than 50 µM, respectively.
As for `CC(C)(C)C(=O)OC[C@@H]1CC[C@H](n2cc(C#Cc3ccc4c5cccc6cccc(c7cccc3c74)c65)c(=O)[nH]c2=O)O1`, the concentration for a half-maximal effect (EC50) with Human alphaherpesvirus 1 is 190 nM.
`CC(C)(C)C(=O)OCn1c(=O)c(C#Cc2ccc3c4cccc5cccc(c6cccc2c63)c54)cn(CC(=O)O)c1=O`: the Activity entry (in the series with RD; with Vero; in series [7]) was “Toxic” each time. For the same compound, the result in the series with Echovirus and in the series with Poliovirus 1 was inactive. Besides, in series [1], the EC50 amounted to 1.2 nM. For the same compound, the CC50 at 168 h in series [2] is greater than 50 µM. Besides, in [6], the cytotoxic concentration (CC50) at 24 h was greater than 50 µM.
For `O=C(Cn1cc(C#Cc2ccc3c4cccc5cccc(c6cccc2c63)c54)c(=O)[nH]c1=O)NCCO`, the Activity entry (with RD; in the series on Vero; in series [7]) was “Toxic” each time. The result with Echovirus and in the series on Poliovirus 1 was inactive. Further, the 50% effective concentration (EC50) in series [1] was 3 nM; in the series with Enterovirus A71 it was “Not Active”. Moreover, the figures for the CC50 at 168 h in [2] and in [4] were greater than 50 µM and greater than 104 µM, respectively. The CC50 at 24 h in series [5] is greater than 104 µM; in series [6], greater than 50 µM.
